Test results reported in patent publication US10093713B2, “GIP-GLP-1 dual agonist compounds and methods” (priority 2013, dated 2018).
Where two headings read alike, the source gives them in different places. *1 amine or outer side, *2 acyl side, *3 side chain or, on linkers, in order; H or OH if unused. Where a SMILES comes first, the peptide text is derived from it. Side-chain parts run from the residue outwards. [ ]: non-standard residue; d: D form. The star is where a group is joined. C20 diacid = O=C(O)CCCCCCCCCCCCCCCCCCC(=O)*; C18 diacid = O=C(O)CCCCCCCCCCCCCCCCC(=O)*; γGlu = O=C(O)[C@H](CCC(=O)[*:2])N[*:1]; Dap = NC[C@H](N)C(=O)O; AEEA = NCCOCCOCC(=O)O; Aib = CC(C)(N)C(=O)O

What was measured:
human GIP R = target: T1, human GIP R (Homo sapiens, UniProt P48546); assay: Human GIP receptor (GIP R) activity assay, cAMP induction (AlphaScreen) in HEK293 cells; format: cell-based
T1 construct: expressed in transfected cells
T1 sequence (P48546 22-466): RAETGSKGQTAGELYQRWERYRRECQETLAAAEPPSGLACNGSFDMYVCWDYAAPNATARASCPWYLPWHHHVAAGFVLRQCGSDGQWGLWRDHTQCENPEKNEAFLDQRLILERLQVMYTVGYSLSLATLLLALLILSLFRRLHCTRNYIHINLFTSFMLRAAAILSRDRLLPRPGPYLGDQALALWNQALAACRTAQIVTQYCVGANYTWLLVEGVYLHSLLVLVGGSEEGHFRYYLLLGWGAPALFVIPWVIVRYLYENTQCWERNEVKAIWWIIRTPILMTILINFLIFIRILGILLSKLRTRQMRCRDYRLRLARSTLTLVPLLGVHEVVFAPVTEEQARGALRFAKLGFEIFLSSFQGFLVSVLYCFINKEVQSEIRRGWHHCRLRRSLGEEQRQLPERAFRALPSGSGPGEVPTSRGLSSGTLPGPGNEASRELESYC
How it was run: (§1)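 Stable HEK293 clones expressing human GIP R or GLP-1 R, seeded 1 day before; cells washed in Tyrode's buffer (10 mM HEPES, pH 7.4), stimulated, then lysed. cAMP measured by AlphaScreen bead competition (1 h, room temperature, dark). EC50 = concentration giving half-maximal cAMP elevation, from curves of absolute cAMP (nM) vs log concentration.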

human GLP-1 R = target: T2, human GLP-1 R (Homo sapiens, UniProt P43220); assay: Human GLP-1 receptor (GLP-1 R) activity assay, cAMP induction (AlphaScreen) in HEK293 cells; format: cell-based
T2 construct: expressed in transfected cells
How it was run: as §1

[1] = Table 2, HEK293 cells expressing human GIP R, read-out: hGIP-R cAMP EC50 average value
[2] = Table 2, HEK293 cells expressing human GLP-1 R, read-out: hGLP1-R cAMP EC50 average value
[3] = Table 3, most comprehensive data, read-out: hGLP-1-R cAMP EC50 average value
[4] = Table 3, most comprehensive data, read-out: hGIP-R cAMP EC50 average value

T2 sequence (P43220 24-463): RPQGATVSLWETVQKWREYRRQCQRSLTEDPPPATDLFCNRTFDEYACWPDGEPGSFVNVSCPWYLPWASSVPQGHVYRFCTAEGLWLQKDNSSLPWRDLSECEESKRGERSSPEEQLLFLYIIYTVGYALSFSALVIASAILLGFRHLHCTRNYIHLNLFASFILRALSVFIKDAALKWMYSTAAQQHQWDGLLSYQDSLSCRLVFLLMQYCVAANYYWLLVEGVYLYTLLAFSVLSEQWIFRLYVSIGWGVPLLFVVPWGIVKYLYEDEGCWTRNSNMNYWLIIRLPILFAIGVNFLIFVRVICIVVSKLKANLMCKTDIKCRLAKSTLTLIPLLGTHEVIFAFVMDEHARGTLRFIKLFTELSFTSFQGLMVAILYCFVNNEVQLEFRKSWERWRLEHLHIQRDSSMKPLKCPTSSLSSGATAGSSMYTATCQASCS

SMILES	EC50 (human GIP R; [1])	EC50 (human GLP-1 R; [2])	EC50 (human GLP-1 R; [3])	EC50 (human GIP R; hGIP-R cAMP EC50 average value, Table 2, HEK293 cells expressing human GIP R)	EC50 (human GLP-1 R)	EC50 (human GIP R; Table 2a, secondary assay study, read-out: hGIP-R cAMP EC50 average value)	EC50 (human GIP R; [4])
CC[C@H](C)[C@H](NC(=O)[C@H](CO)NC(=O)[C@H](CC(C)C)NC(=O)[C@H](CC(=O)O)NC(=O)[C@H](CO)NC(=O)[C@@H](NC(=O)[C@H](Cc1ccccc1)NC(=O)[C@@H](NC(=O)CNC(=O)[C@H](CCC(=O)O)NC(=O)C(C)(C)NC(=O)[C@@H](N)Cc1ccc(O)cc1)[C@@H](C)O)[C@@H](C)O)C(=O)N[C@@H](C)C(=O)N[C@@H](CC(C)C)C(=O)N[C@@H](CCC(=O)O)C(=O)N[C@@H](CCCCN)C(=O)N[C@@H](CCCCNC(=O)COCCOCCNC(=O)COCCOCCNC(=O)CC[C@H](NC(=O)CCCCCCCCCCCCCCCCC(=O)O)C(=O)O)C(=O)N[C@@H](C)C(=O)N[C@@H](CCC(N)=O)C(=O)N[C@@H](CCCNC(=N)N)C(=O)N[C@@H](C)C(=O)N[C@@H](Cc1ccccc1)C(=O)N[C@H](C(=O)N[C@@H](CCC(=O)O)C(=O)N[C@@H](Cc1c[nH]c2ccccc12)C(=O)N[C@@H](CC(C)C)C(=O)N[C@@H](CC(C)C)C(=O)N[C@@H](C)C(=O)N[C@@H](CCC(N)=O)C(=O)N[C@@H](CCCCN)C(N)=O)C(C)C [Compound 17] (H-Y[Aib]EGTFTSDLSIALEKK([AEEA-AEEA-γGlu-C18 diacid])AQRAFVEWLLAQK-NH2)	11 pM	6.2 pM	6 pM				
CC[C@H](C)[C@H](NC(=O)[C@H](CO)NC(=O)[C@H](Cc1ccc(O)cc1)NC(=O)[C@H](CC(=O)O)NC(=O)[C@H](CO)NC(=O)[C@@H](NC(=O)[C@H](Cc1ccccc1)NC(=O)[C@@H](NC(=O)CNC(=O)[C@H](CCC(=O)O)NC(=O)C(C)(C)NC(=O)[C@@H](N)Cc1ccc(O)cc1)[C@@H](C)O)[C@@H](C)O)C(=O)N[C@@H](Cc1ccc(O)cc1)C(=O)N[C@@H](CC(C)C)C(=O)N[C@@H](CC(=O)O)C(=O)N[C@@H](CCCCN)C(=O)N[C@@H](CCCCNC(=O)COCCOCCNC(=O)COCCOCCNC(=O)[C@H](CN)NC(=O)CCCCCCCCCCCCCCCCC(=O)O)C(=O)N[C@@H](C)C(=O)N[C@@H](CCC(N)=O)C(=O)N[C@@H](CCCNC(=N)N)C(=O)N[C@@H](C)C(=O)N[C@@H](Cc1ccccc1)C(=O)N[C@H](C(=O)N[C@@H](CCC(=O)O)C(=O)N[C@@H](Cc1c[nH]c2ccccc12)C(=O)N[C@@H](CC(C)C)C(=O)N[C@@H](CC(C)C)C(=O)N[C@@H](C)C(=O)N[C@@H](CCC(N)=O)C(=O)NCC(=O)N1CCC[C@H]1C(=O)N[C@@H](CO)C(=O)N[C@@H](CO)C(=O)NCC(=O)N[C@@H](C)C(=O)N1CCC[C@H]1C(=O)N1CCC[C@H]1C(=O)N1CCC[C@H]1C(=O)N[C@@H](CO)C(N)=O)C(C)C [Compound 7] (H-Y[Aib]EGTFTSDYSIYLDKK([AEEA-AEEA-Dap-C18 diacid])AQRAFVEWLLAQGPSSGAPPPS-NH2)	11 pM	12 pM					
CC[C@H](C)[C@H](NC(=O)[C@H](CO)NC(=O)[C@H](CC(C)C)NC(=O)[C@H](CC(=O)O)NC(=O)[C@H](CO)NC(=O)[C@@H](NC(=O)[C@H](Cc1ccccc1)NC(=O)[C@@H](NC(=O)CNC(=O)[C@H](CCC(=O)O)NC(=O)C(C)(C)NC(=O)[C@@H](N)Cc1ccc(O)cc1)[C@@H](C)O)[C@@H](C)O)C(=O)N[C@@H](C)C(=O)N[C@@H](CC(C)C)C(=O)N[C@@H](CC(=O)O)C(=O)N[C@@H](CCCCN)C(=O)N[C@@H](CCCCNC(=O)COCCOCCNC(=O)COCCOCCNC(=O)CC[C@H](NC(=O)CCCCCCCCCCCCCCCCC(=O)O)C(=O)O)C(=O)N[C@@H](C)C(=O)N[C@@H](CCC(N)=O)C(=O)N[C@@H](CCCNC(=N)N)C(=O)N[C@@H](C)C(=O)N[C@@H](Cc1ccccc1)C(=O)N[C@H](C(=O)N[C@@H](CC(N)=O)C(=O)N[C@@H](Cc1c[nH]c2ccccc12)C(=O)N[C@@H](CC(C)C)C(=O)N[C@H](C(=O)N[C@@H](C)C(=O)NC(C)(C)C(=O)N[C@@H](CCCCN)C(N)=O)C(C)C)C(C)C [Compound 20]				9.7 pM	11 pM		
CC[C@H](C)[C@H](NC(=O)[C@H](CO)NC(=O)[C@H](Cc1ccc(O)cc1)NC(=O)[C@H](CC(=O)O)NC(=O)[C@H](CO)NC(=O)[C@@H](NC(=O)[C@H](Cc1ccccc1)NC(=O)[C@@H](NC(=O)CNC(=O)[C@H](CCC(=O)O)NC(=O)C(C)(C)NC(=O)[C@@H](N)Cc1ccc(O)cc1)[C@@H](C)O)[C@@H](C)O)C(=O)N[C@@H](Cc1ccc(O)cc1)C(=O)N[C@@H](CC(C)C)C(=O)N[C@@H](CC(=O)O)C(=O)N[C@@H](CCCCN)C(=O)N[C@@H](CCCCNC(=O)COCCOCCNC(=O)COCCOCCNC(=O)COCCOCCNC(=O)CC[C@H](NC(=O)CCCCCCCCCCCCCCCCC(=O)O)C(=O)O)C(=O)N[C@@H](C)C(=O)N[C@@H](CCC(N)=O)C(=O)N[C@@H](CCCNC(=N)N)C(=O)N[C@@H](C)C(=O)N[C@@H](Cc1ccccc1)C(=O)N[C@H](C(=O)N[C@@H](CCC(=O)O)C(=O)N[C@@H](Cc1c[nH]c2ccccc12)C(=O)N[C@@H](CC(C)C)C(=O)N[C@@H](CC(C)C)C(=O)N[C@@H](C)C(=O)N[C@@H](CCC(N)=O)C(=O)NCC(=O)N1CCC[C@H]1C(=O)N[C@@H](CO)C(=O)N[C@@H](CO)C(=O)NCC(=O)N[C@@H](C)C(=O)N1CCC[C@H]1C(=O)N1CCC[C@H]1C(=O)N1CCC[C@H]1C(=O)N[C@@H](CO)C(N)=O)C(C)C [Compound 6]	4.9 pM	16 pM				5 pM	5 pM
CC[C@H](C)[C@H](NC(=O)[C@H](CO)NC(=O)[C@H](Cc1ccc(O)cc1)NC(=O)[C@H](CC(=O)O)NC(=O)[C@H](CO)NC(=O)[C@@H](NC(=O)[C@H](Cc1ccccc1)NC(=O)[C@@H](NC(=O)CNC(=O)[C@H](CCC(=O)O)NC(=O)C(C)(C)NC(=O)[C@@H](N)Cc1ccc(O)cc1)[C@@H](C)O)[C@@H](C)O)C(=O)N[C@@H](Cc1ccc(O)cc1)C(=O)N[C@@H](CC(C)C)C(=O)N[C@@H](CC(=O)O)C(=O)N[C@@H](CCCCN)C(=O)N[C@@H](CCCCNC(=O)COCCOCCNC(=O)COCCOCCNC(=O)CC[C@H](NC(=O)CCCCCCCCCCCCCCCCCCC(=O)O)C(=O)O)C(=O)N[C@@H](C)C(=O)N[C@@H](CCC(N)=O)C(=O)N[C@@H](CCCNC(=N)N)C(=O)N[C@@H](C)C(=O)N[C@@H](Cc1ccccc1)C(=O)N[C@H](C(=O)N[C@@H](CCC(=O)O)C(=O)N[C@@H](Cc1c[nH]c2ccccc12)C(=O)N[C@@H](CC(C)C)C(=O)N[C@@H](CC(C)C)C(=O)N[C@@H](C)C(=O)N[C@@H](CCC(=O)O)C(=O)NCC(=O)N1CCC[C@H]1C(=O)N[C@@H](CO)C(=O)N[C@@H](CO)C(=O)NCC(=O)N[C@@H](C)C(=O)N1CCC[C@H]1C(=O)N1CCC[C@H]1C(=O)N1CCC[C@H]1C(=O)N[C@@H](CO)C(N)=O)C(C)C [Compound 54] (H-Y[Aib]EGTFTSDYSIYLDKK([AEEA-AEEA-γGlu-C20 diacid])AQRAFVEWLLAEGPSSGAPPPS-NH2)			12 pM				16 pM
